Assay results as given in patent US20220411846A1, “METHOD FOR PREDICTING THE VIRULENCE AND PATHOGENICITY OF GRAM-NEGATIVE BACTERIAL STRAINS” (priority 2019, published 2022).

System: strains of E. cloacae complex
Assay: E. cloacae complex polymyxin B survival assay
Format: cell-based, Enterobacter cloacae complex
Conditions: 5 strains expressing 2-hydroxymyristate vs 5 strains not expressing it; 1, 3 and 10 μg/ml; 4 hours
Description: Strains of the Enterobacter complex were selected.
The Enterobacter strains preserved in a tube frozen with 30% glycerol are transplanted in a planktonic culture in 20 ml of an LB culture medium. After incubation at 37° C. overnight, 1 ml of the culture diluted to 10^7 is brought into contact with increasing concentrations of polymyxin B (1 μg/ml, 3 μg/ml and 10 μg/ml). A tube without antibiotic is added as a control.
All the tubes are incubated at 37° C. with shaking for an additional 4 hours. The cultures are then diluted and spread on LB agar Petri dishes.
The dishes are incubated at 37° C. overnight and the colonies are counted.
Percentage survival is computed as follows:
(CFU polymyxin B/CFU control)×100
5 strains of E. cloacae complex expressing 2-hydroxymyristate (2HM) and 5 strains of E. cloacae complex not expressing 2-hydroxymyristate (2HM) were exposed to different concentrations of polymyxin B for 4 hours.

Substance: polymyxin B [polymixin B]
- Survival of strains after exposure to polymyxin B (FIG. 6): presence of 2-OH myristate on Lipid A generates resistance
